This experiment concerns T-47D spheroids with HUVEC/MSC, viability. The experiment in a line: Anticancer human tumor T-47D cell line growth inhibition [PI3K].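 For all read-outs here: spheroids exposed to agents for seven days before reading.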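 For viability, T/C: percent of DMSO vehicle control luminescence so 100% = untreated growth.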 The following applies: for viability, T/C: stronger effect = lower value. A digest of the protocol: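 Three cell types, namely tumor cells, endothelial cells and mesenchymal stem cells, formed each spheroid. Combinations with four PI3K inhibitors were screened at clinically achievable concentrations decreasing by half-log, and spheroid viability was recorded.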

Where only a bound is given, the exact number is not on record here.

A word on the IC50: it is the midpoint of a concentration-inhibition curve. In general, viability, T/C refers to the ratio of treated to control. On to `CCN1CCN(Cc2ccc(Nc3ncc(F)c(-c4cc(F)c5nc(C)n(C(C)C)c5c4)n3)nc2)CC1` + COc1c(OCCCN2CCOCC2)ccc2c3n(c(=NC(=O)c4cnc(N)nc4)nc12)CCN3, for which the IC50 was over 1000 nM (curve of first compound, second compound 0.00316 µM); over 1000 nM (curve of first compound, second compound 0.01 µM); 8.3 nM (curve of first compound, second compound 0.0316 µM); under 3.16 nM (curve of first compound, second compound 0.1 µM); under 3.16 nM (curve of first compound, second compound 0.316 µM); under 3.16 nM (curve of first compound, second compound 1 µM). Also, the viability, T/C is 81.5% (second compound 0.00316 µM, first compound 0.00316 µM); 77.9% (second compound 0.00316 µM, first compound 0.01 µM); 83.2% (second compound 0.00316 µM, first compound 0.0316 µM); 74.8% (second compound 0.00316 µM, first compound 0.1 µM); 73.2% (second compound 0.00316 µM, first compound 0.316 µM); 88.6% (second compound 0.00316 µM, first compound 1 µM). Further, the viability, T/C (second compound 0.01 µM, first compound 0.00316 µM) is 99.1%; the viability, T/C (second compound 0.01 µM, first compound 0.01 µM) was 75.3%; the viability, T/C (second compound 0.01 µM, first compound 0.0316 µM) was 70.5%; the viability, T/C (second compound 0.01 µM, first compound 0.1 µM) was 71.5%; the viability, T/C (second compound 0.01 µM, first compound 0.316 µM) was 67.6%; the viability, T/C (second compound 0.01 µM, first compound 1 µM) was 72.5%. Further, the viability, T/C by setting is: (second compound 0.0316 µM, first compound 0.00316 µM) 64%; (second compound 0.0316 µM, first compound 0.01 µM) 47.8%; (second compound 0.0316 µM, first compound 0.0316 µM) 41.2%; (second compound 0.0316 µM, first compound 0.1 µM) 43.4%; (second compound 0.0316 µM, first compound 0.316 µM) 44.6%; (second compound 0.0316 µM, first compound 1 µM) 56.5%. For the same compound, the viability, T/C (second compound 0.1 µM, first compound 0.00316 µM) is 41.3%; the viability, T/C (second compound 0.1 µM, first compound 0.01 µM) is 25.1%; the viability, T/C (second compound 0.1 µM, first compound 0.0316 µM) was 27.7%; the viability, T/C (second compound 0.1 µM, first compound 0.1 µM) was 24.4%; the viability, T/C (second compound 0.1 µM, first compound 0.316 µM) is 29%; the viability, T/C (second compound 0.1 µM, first compound 1 µM) was 45.3%. The viability, T/C was 13% (second compound 0.316 µM, first compound 0.00316 µM); 12.3% (second compound 0.316 µM, first compound 0.01 µM); 14.8% (second compound 0.316 µM, first compound 0.0316 µM); 16.3% (second compound 0.316 µM, first compound 0.1 µM); 23.4% (second compound 0.316 µM, first compound 0.316 µM); 34.4% (second compound 0.316 µM, first compound 1 µM). In addition, the viability, T/C reads like this: (second compound 1 µM, first compound 0.00316 µM) 6.17%; (second compound 1 µM, first compound 0.01 µM) 5.48%; (second compound 1 µM, first compound 0.0316 µM) 7.16%; (second compound 1 µM, first compound 0.1 µM) 6.14%; (second compound 1 µM, first compound 0.316 µM) 12.2%; (second compound 1 µM, first compound 1 µM) 24.2%.

On to `CC(=O)c1c(C)c2cnc(Nc3ccc(N4CCNCC4)cn3)nc2n(C2CCCC2)c1=O`, for which the viability, T/C (compound 0.000316 µM) was 94.9% [middle of 4 runs]; the viability, T/C (compound 0.001 µM) was 98% [middle of 4 runs]; the viability, T/C (compound 0.0316 µM) was 96.2% [middle of 4 runs]; the viability, T/C (compound 0.1 µM) was 86.7% [middle of 4 runs]. The IC50 (curve of compound) is over 100 nM.

Consider `Cc1nc(NC(=O)N2CCCC2C(N)=O)sc1-c1ccnc(C(C)(C)C(F)(F)F)c1` (stereo not drawn), for which the viability, T/C runs as follows: (compound 0.0316 µM) 97.8% [middle of 8 runs]; (compound 0.1 µM) 96.2% [middle of 8 runs]; (compound 1 µM) 97.6% [middle of 8 runs]; (compound 3.16 µM) 77% [middle of 7 runs]; (compound 10 µM) 39.9% [middle of 8 runs]. Besides, under “compound alone, run of 04/24/2023”, the IC50 is 7.37 µM [middle of 8 runs].

These data come from PubChem BioAssay AID1963959 (Molecular Pharmacology Branch, DTP, NCI, 2024).
